Reference: patent EP0227431A1, “Heterocyclic amides” (BEECHAM GROUP PLC, priority 1985, dated 1987)

What was measured:
[1] = target: T1, 5-Lipoxygenase enzyme (10,000 g supernatant from RBL-1 cells) (Rattus norvegicus, UniProt P12527); assay: Inhibition of 5-Lipoxygenase Activity (Method B); assay type: biochemical; conditions: decrease in formation of 5-HETE and 5,12-diHETE relative to control
T1 construct: 5-Lipoxygenase enzyme was prepared as a 10,000 g supernatant from RBL-1 cells; endogenous in cells; host or cells: RBL-1 cells (10,000 g supernatant, method of Jakschik)
T1 sequence (P12527 1-673): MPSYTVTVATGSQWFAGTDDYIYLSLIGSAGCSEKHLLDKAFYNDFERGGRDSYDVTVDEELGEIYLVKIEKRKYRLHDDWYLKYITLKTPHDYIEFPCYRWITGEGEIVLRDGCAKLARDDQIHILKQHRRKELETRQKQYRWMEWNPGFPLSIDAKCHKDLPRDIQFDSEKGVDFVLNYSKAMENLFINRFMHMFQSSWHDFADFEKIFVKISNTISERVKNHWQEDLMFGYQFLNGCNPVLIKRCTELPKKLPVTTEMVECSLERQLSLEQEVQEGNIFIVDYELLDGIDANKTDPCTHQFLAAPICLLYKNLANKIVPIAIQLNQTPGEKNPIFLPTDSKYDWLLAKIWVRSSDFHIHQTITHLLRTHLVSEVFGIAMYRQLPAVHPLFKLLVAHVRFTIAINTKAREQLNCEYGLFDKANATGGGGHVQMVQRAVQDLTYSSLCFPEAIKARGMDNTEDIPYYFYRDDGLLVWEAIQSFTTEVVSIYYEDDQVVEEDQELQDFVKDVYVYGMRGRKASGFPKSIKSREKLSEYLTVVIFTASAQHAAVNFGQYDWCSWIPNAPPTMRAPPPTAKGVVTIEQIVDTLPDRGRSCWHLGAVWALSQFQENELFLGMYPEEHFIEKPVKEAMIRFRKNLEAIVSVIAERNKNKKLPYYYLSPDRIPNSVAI
Protocol: Inhibition of 5-Lipoxygenase Activity
5-Lipoxygenase enzyme was prepared as a 10,000 g supernatant from RBL-1 cells by the method of Jakschik [Jakschik, B.A., F.F. Sun, L.M. Lee, and M.M.Steinhoff, 1980, Biochem. Biophys. Res. Comm. 95, 103]. The 10,000 g supernatant was diluted with homogenization buffer to the equivalent of 1.5 - 2.5 x 10^7 cells. ml-^1 and made 2mM with respect to CaCl2. Aliquots of 0.5 ml were then dispensed into tubes, and incubated at 29 °C with 5 µl ethanol or compound in ethanol at the desired concentration for 2 min. Then [1-^14C] arachidonic acid was added in buffer to give a final concentration of 6.3 uM and 0.2 µCi per incubation, and the reaction continued at 29 °C for 2 min. The reaction was terminated by adding 1 ml of acetone and cooling on ice, 0.5 ml of ice-cold saline and 10 µl of 2N formic acid were added, and the mixture was extracted with 2 x 2 ml of chloroform. The extract was stored under N2at -20°C until analysis by chromatography. Activity was measured as the percentage of total radioactivity found in 5-HETE and 5,12-diHETE, and inhibition calculated as the decrease in formation of the sum of these two species in compound-treated incubates relative to control incubates.

[2] = system: Phospholipase A2 (Naja naja venom, Sigma); assay: Inhibition of Phospholipase A2 Activity (Method A); assay type: biochemical; conditions: inhibition of arachidonic acid release, tested in triplicate
Protocol: Inhibition of Phospholipase A2 Activity
Enzyme: Phospholipase A2 (Naja naja venom, Sigma)
Substrate: Diarachidoyl phosphatidylcholine (10.6mg) and α-1-palmitoyl-2-[1-^14C]-arachidonyl phosphatidylcholine (0.5uCi; 52.9mCi/mMol) in 28ml of TrisHCl buffer=100mM, pH 8.7) ultrasonicated.
Assay: Incubations containing PLA2 (0.125ng) in Tris HC1 buffer (lOOmM, pH 8.7) and CaCl2 (4mM) were prepared on ice. Immediately prior to incubation at 37°C 5µl of DMSO or compound in DMSO were added. The final assay volume was 1.75ml. After 10 minutes at 37 °C 750µl of substrate was added, with mixing, and the incubation continued for a further 15 min. The reaction was terminated by placing on ice and adding 5ml CHCl3:MeOH (2:lv/v).
The lower organic phase was removed and stored under N2 at-20 °C until analysed. Analysis was by 1-dimensional t.l.c. on polygram Sil G sheets in the solvent system petroleum ether: diethyl ether: acetic acid (60:40:1,v/v). In this system the phospholipid remains at the origin and the arachidonic acid has an approximate Rf. value of 0.36. The areas of interest were cut from the plates and radioactivity determined by liquid scintillation counting.
All compounds were tested in triplicate.
Calculation: The radioactivity of the arachidonic acid is expressed as a percentage of the total dpm cut from the plate. The percentage inhibition of arachidonic acid release compared to that of the control was calculated after correction for the level of spontaneous release where: • x = % corrected mean arachidonic acid release in control • y = % corrected arachidionic acid release after inhibition • % inhibition [formula]
The mean of the triplicate samples was calculated giving z + standard deviation%.

Row | SMILES | inhibition at 20 µM [1] [%] | Phospholipase A2 Inhibition at 20µM (%) [2] [%]
1 | COC(=O)c1sccc1NC(=O)C=Cc1ccc(OC)c(OC)c1 [Example 6, Methyl-3[N-(3,4-dimethoxycinnamoyl)amino]thiophene-2-carboxylate] | 81 | 31
2 | COC(=O)c1sccc1NC(=O)C=Cc1ccc(O)c(O)c1 [Example 7] | 93 | 84
3 | COC(=O)c1sccc1NC(=O)C=Cc1ccc(O)c(OC)c1 [Example 8] | 98 | 26
4 | CCOC(=O)c1c[nH]nc1NC(=O)C=Cc1ccc(O)c(O)c1 [Example 9, Ethyl 3-[N-(3,4-dihydroxycinnamol)amino]pyrazole-4-carboxylate] | 97 | 71
5 | CCOC(=O)c1cccnc1NC(=O)C=Cc1ccc(O)c(O)c1 [Example 10, Ethyl-2 [N-(3,4-dihydroxycinnamoyl)amino]pyridine-3-carboxylate] | 95 | 10
6 | CCOC(=O)c1c(NC(=O)C=Cc2ccc(O)c(O)c2)sc2c1CCCC2 [Example 11, Ethyl-2[N-3,4-dihydroxycinnamoyl)amino]4,5,6,7-tetrahydrobenzo [bj thiophene-3-carboxylate] | 91 | 92
7 | O=C(C=Cc1ccc(O)c(O)c1)Nc1ccsc1C(=O)O [Example 12] | 88 | 36
8 | COc1cc(C=CC(=O)Nc2ccsc2C(=O)O)ccc1O [Example 13, 3-[N-(4-hydroxy-3-methoxycinnamoyl)-amino]thiophene-2-carboxylic acid.] | 64 | 26
9 | O=C(C=Cc1ccc(O)c(O)c1)Nc1ncccc1C(=O)O [Example 14, 2-[N-(3,4-dihydroxycinnamoyl)amino]pyridine 3-carboxylic acid] | 67 | 
10 | COc1ccc(C=CC(=O)Nc2ccsc2C(=O)O)cc1OC [Example 15, 3-[N-(3,4-Dimethoxycinnamoyl)amino]thiophene-2-carboxylic acid] | 0 | 10
11 | COC(=O)c1sc(-c2ccc(Cl)cc2)cc1NC(=O)C=Cc1ccc(OC(C)=O)c(OC(C)=O)c1 [Example 16, Methyl-5-(4-chlorophenyl)-3-(3,4-diacetoxycinnamoyl-amino)-thiophene-2-carboxylate] | 60 | 
